Experimental data reported in patent publication US9957270B2, “Fused pyrimidine-based hydroxamate derivatives” (Agency for Science, Technology and Research, priority 2014, dated 2018).

Tests used:
[1] = Microsomal stability, mouse liver microsomes; details: mouse, microsomes, 0.5 h, 5 μM, pH 7.4
Experimental: (§1) GIBIO pooled human liver microsomes (HLM) (Cat # HMMCPL), mouse liver microsomes (MLM) (Cat # BCMCPL), and rat liver microsomes (RLM) (Cat # RTMCPL) were purchased from Life Technologies. […] Samples are incubated for 30, 45, or 60 min. Reaction is terminated with ice-cold acetonitrile 0.3% formic acid. Samples are subsequently centrifuged at 4° C. for 15 min at 20,000×g. The supernatant is analysed by LC-MS.
(§2) Compound in vitro metabolic stability was assayed using liver microsomes (LM) at 0.5 mg/mL of proteins, incubated for 30 min (mouse, MLM), 45 min (rat, RLM), 30 or 45 min (human, HLM). % of remaining parent compound was measured using LC-MS.

[2] = test system: MCF7; assay: Anti-proliferative assay (cellular IC50), MCF7; details: Homo sapiens, MCF7, 72 h, read-out: In Vitro Cellular IC50 MCF7
[3] = Microsomal stability, rat liver microsomes; details: rat, microsomes, 0.75 h, 5 μM, pH 7.4
Experimental: as §1, §2

[4] = test system: MOLT-4; assay: Anti-proliferative assay (cellular IC50), MOLT-4; details: Homo sapiens, MOLT-4, 72 h, read-out: In Vitro Cellular IC50 MOLT-4
[5] = test system: PC-3; assay: Anti-proliferative assay (cellular IC50), PC-3; details: Homo sapiens, PC-3, 72 h, read-out: In Vitro Cellular IC50 PC-3
[6] = Microsomal stability, human liver microsomes; details: human, microsomes, 0.75 h, 5 μM, pH 7.4
Experimental: as §1, §2

[7] = molecular target: T1, PI3Kα (Homo sapiens, UniProt P42336); assay: Kinase enzyme assay (ADP-Glo), PI3Kα; assay type: biochemical; details: read-out: In Vitro Enzymatic IC50 PI3Kα
T1 construct: purchased Invitrogen, or BPS Bioscience Inc., or SignalChem PV4788 / 40620 / P27-18H

[8] = test system: K-562; assay: Anti-proliferative assay (cellular IC50), K-562; details: Homo sapiens, K562, 72 h, read-out: In Vitro Cellular IC50 K-562
[9] = test system: COLO 205; assay: cells; details: Homo sapiens, COLO 205, 72 h, read-out: In Vitro Cellular IC50 COLO 205
[10] = molecular target: HDAC1 (Homo sapiens, UniProt Q13547); assay: HDAC enzyme assay, recombinant HDAC1
[11] = molecular target: HDAC (HeLa nuclear extracts); assay: HDAC enzyme assay, HeLa nuclear extracts; details: read-out: In Vitro Enzymatic IC50 HDAC (HeLa)
[12] = molecular target: T2, HDAC6 (Homo sapiens, UniProt Q9UBN7); assay: HDAC enzyme assay, recombinant HDAC6
T2 sequence (Q9UBN7 1-1215): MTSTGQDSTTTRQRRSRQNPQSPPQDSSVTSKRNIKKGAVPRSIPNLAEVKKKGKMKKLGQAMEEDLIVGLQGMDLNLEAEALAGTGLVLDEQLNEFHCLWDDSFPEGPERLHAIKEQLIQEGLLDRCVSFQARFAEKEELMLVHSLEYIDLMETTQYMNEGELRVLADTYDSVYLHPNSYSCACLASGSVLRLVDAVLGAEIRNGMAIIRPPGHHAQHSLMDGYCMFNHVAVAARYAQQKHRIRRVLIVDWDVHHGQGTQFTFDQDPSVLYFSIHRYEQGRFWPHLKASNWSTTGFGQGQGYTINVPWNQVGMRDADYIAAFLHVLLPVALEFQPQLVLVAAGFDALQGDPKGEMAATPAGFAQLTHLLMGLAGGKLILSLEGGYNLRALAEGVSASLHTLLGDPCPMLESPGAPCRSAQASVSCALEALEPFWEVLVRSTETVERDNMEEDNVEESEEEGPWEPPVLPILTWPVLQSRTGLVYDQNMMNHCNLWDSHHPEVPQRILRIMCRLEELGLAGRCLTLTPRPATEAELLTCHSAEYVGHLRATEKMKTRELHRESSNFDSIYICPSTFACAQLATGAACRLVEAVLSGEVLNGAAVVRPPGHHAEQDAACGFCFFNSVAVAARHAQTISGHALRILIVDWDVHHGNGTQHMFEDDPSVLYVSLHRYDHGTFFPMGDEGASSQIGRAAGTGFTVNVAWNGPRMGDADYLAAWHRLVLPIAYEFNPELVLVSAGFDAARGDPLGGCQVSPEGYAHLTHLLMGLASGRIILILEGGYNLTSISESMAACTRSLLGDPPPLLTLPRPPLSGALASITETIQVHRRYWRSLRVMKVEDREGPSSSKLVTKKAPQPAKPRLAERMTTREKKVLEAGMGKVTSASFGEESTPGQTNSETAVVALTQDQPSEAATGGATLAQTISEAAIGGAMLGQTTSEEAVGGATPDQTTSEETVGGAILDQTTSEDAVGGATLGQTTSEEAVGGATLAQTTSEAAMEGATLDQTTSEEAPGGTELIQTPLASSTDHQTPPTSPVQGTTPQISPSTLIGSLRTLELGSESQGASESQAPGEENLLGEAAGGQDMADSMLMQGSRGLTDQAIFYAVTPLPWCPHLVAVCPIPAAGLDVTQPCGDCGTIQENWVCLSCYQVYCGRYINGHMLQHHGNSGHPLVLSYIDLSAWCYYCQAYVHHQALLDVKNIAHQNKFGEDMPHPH

[13] = test system: HCT 116; assay: cells; details: Homo sapiens, HCT-116, 72 h, read-out: In Vitro Cellular IC50 HCT 116
[14] = test system: MV-4-11; assay: cells; details: Homo sapiens, MV4-11, 72 h, read-out: In Vitro Cellular IC50 MV-4-11
[15] = molecular target: T3, p110α(E545K)/p85α (Homo sapiens, UniProt P42336, E545K); assay: Kinase enzyme assay (ADP-Glo), PI3Kα (E545K); assay type: biochemical; details: read-out: In Vitro Enzymatic IC50 PI3Kα (E545K)
T3 construct: purchased SignalChem P27-15H

[16] = molecular target: T4, p110α(H1047R)/p85α (Homo sapiens, UniProt P42336, H1047R); assay: Kinase enzyme assay (ADP-Glo), PI3Kα (H1047R); assay type: biochemical; details: read-out: In Vitro Enzymatic IC50 PI3Kα (H1047R)
T4 construct: purchased BPS 40641

[17] = molecular target: T5, PI3Kβ (Homo sapiens, UniProt P42338); assay: Kinase enzyme assay (ADP-Glo), PI3Kβ; assay type: biochemical; details: read-out: In Vitro Enzymatic IC50 PI3Kβ
T5 construct: purchased SignalChem or BPS P28-10H / 40622
T5 sequence (P42338 whole entry): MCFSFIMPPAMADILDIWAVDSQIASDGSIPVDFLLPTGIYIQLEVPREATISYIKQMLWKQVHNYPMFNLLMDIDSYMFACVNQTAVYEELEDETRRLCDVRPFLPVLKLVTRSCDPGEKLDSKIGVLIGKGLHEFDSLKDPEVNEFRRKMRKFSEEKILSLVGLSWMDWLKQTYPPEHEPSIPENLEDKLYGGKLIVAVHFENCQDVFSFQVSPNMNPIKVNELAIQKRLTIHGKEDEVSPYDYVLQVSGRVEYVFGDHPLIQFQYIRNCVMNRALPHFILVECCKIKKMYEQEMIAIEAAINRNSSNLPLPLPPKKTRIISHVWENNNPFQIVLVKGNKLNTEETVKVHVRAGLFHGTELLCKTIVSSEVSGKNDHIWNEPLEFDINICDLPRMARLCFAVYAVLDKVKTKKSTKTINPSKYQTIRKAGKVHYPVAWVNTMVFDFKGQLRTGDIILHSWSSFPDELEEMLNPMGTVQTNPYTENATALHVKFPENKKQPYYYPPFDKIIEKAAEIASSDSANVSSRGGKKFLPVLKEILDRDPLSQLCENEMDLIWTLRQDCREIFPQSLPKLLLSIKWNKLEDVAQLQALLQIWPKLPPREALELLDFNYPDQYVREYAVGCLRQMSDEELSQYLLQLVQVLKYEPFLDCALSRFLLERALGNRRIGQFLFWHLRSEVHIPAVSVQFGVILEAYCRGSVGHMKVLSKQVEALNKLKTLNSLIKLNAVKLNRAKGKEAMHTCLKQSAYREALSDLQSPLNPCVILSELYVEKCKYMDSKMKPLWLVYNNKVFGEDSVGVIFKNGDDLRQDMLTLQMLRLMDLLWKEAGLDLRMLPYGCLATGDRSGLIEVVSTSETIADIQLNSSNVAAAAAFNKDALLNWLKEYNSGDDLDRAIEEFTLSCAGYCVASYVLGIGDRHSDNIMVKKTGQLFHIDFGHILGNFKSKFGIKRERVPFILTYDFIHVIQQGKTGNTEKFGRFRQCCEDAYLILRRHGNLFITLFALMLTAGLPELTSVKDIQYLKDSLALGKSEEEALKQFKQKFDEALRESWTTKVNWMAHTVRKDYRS
T5 sequence (P27986 whole entry partner): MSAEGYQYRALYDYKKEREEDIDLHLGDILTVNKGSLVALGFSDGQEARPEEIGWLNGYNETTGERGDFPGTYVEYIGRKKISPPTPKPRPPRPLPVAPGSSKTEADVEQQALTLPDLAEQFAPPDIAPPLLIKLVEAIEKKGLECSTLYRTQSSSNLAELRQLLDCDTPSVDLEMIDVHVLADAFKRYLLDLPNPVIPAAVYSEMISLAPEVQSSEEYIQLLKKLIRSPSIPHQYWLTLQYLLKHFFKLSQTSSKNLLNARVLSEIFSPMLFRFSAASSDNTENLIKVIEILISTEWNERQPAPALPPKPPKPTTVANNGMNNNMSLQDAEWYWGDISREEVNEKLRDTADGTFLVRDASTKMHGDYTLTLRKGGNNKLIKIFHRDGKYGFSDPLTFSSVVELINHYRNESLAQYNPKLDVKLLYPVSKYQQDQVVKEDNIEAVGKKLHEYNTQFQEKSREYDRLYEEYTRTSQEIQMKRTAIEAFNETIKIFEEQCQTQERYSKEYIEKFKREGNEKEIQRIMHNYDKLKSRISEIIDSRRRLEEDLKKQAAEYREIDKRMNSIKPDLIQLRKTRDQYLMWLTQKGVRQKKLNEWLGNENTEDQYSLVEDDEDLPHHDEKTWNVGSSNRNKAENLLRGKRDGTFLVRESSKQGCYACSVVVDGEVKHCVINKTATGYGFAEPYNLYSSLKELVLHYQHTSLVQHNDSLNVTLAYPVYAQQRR

T1 sequence (P42336 whole entry): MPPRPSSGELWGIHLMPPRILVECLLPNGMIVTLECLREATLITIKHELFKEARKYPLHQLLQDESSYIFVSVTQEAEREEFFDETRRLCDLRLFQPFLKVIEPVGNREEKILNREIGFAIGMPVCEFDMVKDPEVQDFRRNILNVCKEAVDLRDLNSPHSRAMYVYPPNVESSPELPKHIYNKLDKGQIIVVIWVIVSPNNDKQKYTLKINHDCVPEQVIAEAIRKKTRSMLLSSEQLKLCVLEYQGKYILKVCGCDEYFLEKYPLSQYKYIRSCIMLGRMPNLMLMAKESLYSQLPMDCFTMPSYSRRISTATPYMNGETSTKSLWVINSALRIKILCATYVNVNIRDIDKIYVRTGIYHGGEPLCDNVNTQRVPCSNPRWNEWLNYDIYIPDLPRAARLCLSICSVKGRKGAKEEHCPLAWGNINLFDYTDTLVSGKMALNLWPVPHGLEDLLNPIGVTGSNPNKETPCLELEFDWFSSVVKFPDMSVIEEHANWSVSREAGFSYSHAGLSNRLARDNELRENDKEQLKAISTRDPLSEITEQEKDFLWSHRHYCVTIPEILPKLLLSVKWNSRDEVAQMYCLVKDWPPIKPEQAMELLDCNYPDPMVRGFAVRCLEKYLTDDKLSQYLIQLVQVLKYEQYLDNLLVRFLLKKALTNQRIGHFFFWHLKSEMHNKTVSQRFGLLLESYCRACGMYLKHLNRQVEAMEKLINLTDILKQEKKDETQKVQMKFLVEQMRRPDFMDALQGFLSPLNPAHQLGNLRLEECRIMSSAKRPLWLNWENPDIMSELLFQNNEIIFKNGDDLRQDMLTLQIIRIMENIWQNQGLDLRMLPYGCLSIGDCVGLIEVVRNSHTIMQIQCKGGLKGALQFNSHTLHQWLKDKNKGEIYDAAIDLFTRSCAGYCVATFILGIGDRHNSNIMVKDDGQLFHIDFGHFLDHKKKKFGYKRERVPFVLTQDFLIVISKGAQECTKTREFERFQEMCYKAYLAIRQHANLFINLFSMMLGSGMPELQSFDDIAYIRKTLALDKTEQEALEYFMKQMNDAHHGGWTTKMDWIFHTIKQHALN
T1 sequence (P27986 whole entry partner): as the sequence (P27986 whole entry partner) above
Sequence of HDAC1 (Q13547 whole entry): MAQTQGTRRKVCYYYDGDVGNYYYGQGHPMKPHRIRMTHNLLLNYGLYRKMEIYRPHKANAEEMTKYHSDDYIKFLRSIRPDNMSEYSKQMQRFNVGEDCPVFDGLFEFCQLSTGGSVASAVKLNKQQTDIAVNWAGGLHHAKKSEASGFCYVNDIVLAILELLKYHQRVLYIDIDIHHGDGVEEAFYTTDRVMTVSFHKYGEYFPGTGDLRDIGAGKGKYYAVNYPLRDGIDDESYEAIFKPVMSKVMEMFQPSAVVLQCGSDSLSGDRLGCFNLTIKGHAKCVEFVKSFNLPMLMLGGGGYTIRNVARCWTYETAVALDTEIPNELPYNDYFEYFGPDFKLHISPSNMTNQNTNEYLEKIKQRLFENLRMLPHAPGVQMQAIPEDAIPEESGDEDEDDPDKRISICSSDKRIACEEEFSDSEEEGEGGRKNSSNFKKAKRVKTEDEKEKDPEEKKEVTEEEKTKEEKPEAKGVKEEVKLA
T4 sequence (P42336 whole entry H1047R): as the sequence (P42336 whole entry) above, with H1047R counted along it
T4 sequence (P27986 whole entry partner): as the sequence (P27986 whole entry partner) above
T3 sequence (P42336 whole entry E545K): as the sequence (P42336 whole entry) above, with E545K counted along it
T3 sequence (P27986 whole entry partner): as the sequence (P27986 whole entry partner) above

With `CCn1c(CN(C)Cc2ccc(/C=C/C(=O)NO)cc2)nc2c(N3CCOCC3)nc(-c3cnc(N)nc3)nc21` [compound 89, (E)-3-(4-((((2-(2-aminopyrimidin-5-yl)-9-ethyl-6-morpholino-9H-purin-8-yl)methyl)(methyl)amino)methyl)phenyl)-N-hydroxyacrylamide] the “Microsomal Stability MLM, % of remaining parent compound” value [1] was 70%, the IC50 [2] was 500 to 2000 nM and the “Microsomal Stability RLM, % of remaining parent compound” value [3] was 70%. The IC50 [4] was 500 to 2000 nM, the IC50 [5] was 2000 to 10000 nM and the “Microsomal Stability HLM, % of remaining parent compound” value [6] was 87%. For the same molecule, the IC50 [7] was 10 to 100 nM, the IC50 [8] was 2000 to 10000 nM and the IC50 [9] was 2000 to 10000 nM. For the same molecule, the IC50 [10] was 100 to 1000 nM and the IC50 [11] was 100 to 1000 nM.
For `CC(C)n1c(NCCCCCC(=O)NO)nc2c(-c3cnc(N)nc3)nc(N3CCOCC3)nc21` [compound 6], the IC50 [12] was 100 to 1000 nM, the IC50 [13] was 500 to 2000 nM and the “Microsomal Stability MLM, % of remaining parent compound” value [1] was 89%. The IC50 [2] was 2000 to 10000 nM, the “Microsomal Stability RLM, % of remaining parent compound” value [3] was 88% and the IC50 [4] was 2000 to 10000 nM. For the same molecule, the IC50 [5] was 2000 to 10000 nM, the “Microsomal Stability HLM, % of remaining parent compound” value [6] was 88% and the IC50 [7] was 10 to 100 nM. The IC50 [8] was 2000 to 10000 nM, the IC50 [9] was 2000 to 10000 nM and the IC50 [10] was 10 to 100 nM. It also gave an IC50 [14] of 500 to 2000 nM and an IC50 [11] of 100 to 1000 nM.
Molecule `CC(C)n1cnc2c(-c3cnc(N)nc3)nc(NCCCCCC(=O)NO)nc21` [compound 38, 6-((6-(2-aminopyrimidin-5-yl)-9-isopropyl-9H-purin-2-yl)amino)-N-hydroxyhexanamide] has an IC50 [12] of less than 10 nM, an IC50 [15] of 10 to 100 nM and an IC50 [16] of 10 to 100 nM. For the same molecule, the IC50 [17] was 100 to 1000 nM, the IC50 [7] was 10 to 100 nM and the IC50 [10] was less than 10 nM. It also gave an IC50 [11] of less than 10 nM.
In the case of `CC(C)n1cnc2c(-c3cccc(OCCCC(=O)NO)c3)nc(N3CCCC3)nc21` [compound 29, N-hydroxy-4-(3-(9-isopropyl-2-(pyrrolidin-1-yl)-9H-purin-6-yl)phenoxy)butanamide], the IC50 [13] is reported as less than 500 nM, the “Microsomal Stability MLM, % of remaining parent compound” value [1] is reported as 75% and the IC50 [2] is reported as 500 to 2000 nM. The “Microsomal Stability RLM, % of remaining parent compound” value [3] was 9%, the IC50 [4] was less than 500 nM and the IC50 [5] was 500 to 2000 nM. For the same molecule, the “Microsomal Stability HLM, % of remaining parent compound” value [6] was 97%, the IC50 [8] was 500 to 2000 nM and the IC50 [9] was 500 to 2000 nM. For the same molecule, the IC50 [10] was 10 to 100 nM, the IC50 [14] was less than 500 nM and the IC50 [11] was 100 to 1000 nM.
Work on `CC(C)n1cnc2c(N3CCOCC3)nc(-c3ccc(OCCCCCCC(=O)NO)cc3)nc21` [compound 81, N-hydroxy-7-(4-(9-isopropyl-6-morpholino-9H-purin-2-yl)phenoxy)heptanamide] yielded an IC50 [12] of less than 10 nM, an IC50 [15] of 10 to 100 nM and an IC50 [16] of 10 to 100 nM. For the same molecule, the IC50 [17] was 100 to 1000 nM, the IC50 [7] was 10 to 100 nM and the IC50 [10] was less than 10 nM. It also gave an IC50 [11] of less than 10 nM.
